The assay deals with neuromuscular block, induced by the muscle relaxant rocuronium bromide (Roc). The experiment in a line: Reversal of neuromuscular blockade in anaesthetized guinea pigs in vivo. The conditions noted are these: for concentration at maximum reversal (at conc.) / % max reversal: anaesthetized guinea pigs, rocuronium bromide steady-state block; for concentration at maximum reversal (at conc.): dose of reversal agent at which % max reversal was seen; for % max reversal: maximum reversal; for ED50: dose producing 50% reversal of steady-state neuromuscular block: anaesthetized male Dunkin-Hartley guinea pigs, steady-state block of 85-90% by continuous rocuronium bromide infusion, reversal agent given by jugular vein catheter, M. gastrocnemius contractions. The method, then:
Reversal of Neuromuscular Blockade in Anaesthetized Guinea Pigs in vivo
Male Dunkin-Hartley guinea pigs (bodyweight: 600-900 g) were anaesthetized by i.p. administration of 10 mg/kg pentobarbitone and 1000 mg/kg urethane. After tracheotomy, the animals were artificially ventilated using a Harvard small animal ventilator. A catheter was placed into the carotid artery for continuous monitoring of arterial blood pressure and the taking of blood samples for blood gas analysis. Heart rate was derived from the blood pressure signal. The sciatic nerve was stimulated (rectangular pulses of 0.5 ms duration at 10 s (0.1 Hz) intervals at a supramaximal voltage, using a Grass S88 Stimulator) and the force of M. gastrocnemius contractions was measured using a Grass FT03 force-displacement transducer. Contractions, blood pressure and heart rate were recorded on a multichannel Grass 7D recorder. Catheters were placed in both jugular veins. One catheter was used for the continuous infusion of a neuromuscular blocking agent. The infusion rate of the neuromuscular blocking agent was increased until a steady-state block of 85-90% was obtained. The other catheter was used for administration of increasing doses of the reversal agent. During continuous infusion of the neuromuscular blocking agent, single doses of increasing concentration of reversal agent were given. At the end of the experiment, the measured force of muscle contractions was plotted against the concentration of reversal agent, and using regression analysis techniques, the 50% reversal concentration was calculated. Results for the reversal of the neuromuscular block, induced by the muscle relaxant rocuronium bromide (Roc), by the 6-mercapto-cyclodextrin derivatives of Examples 1-19 are presented in Table I. For comparison, the reversal activity of the parent compounds β-cyclodextrin and γ-cyclodextrin are included as well.

Molecules are shown by their SMILES.

As for `NC(=O)CCCSCC1OC2OC3C(CSCCCC(N)=O)OC(OC4C(CSCCCC(N)=O)OC(OC5C(CSCCCC(N)=O)OC(OC6C(CSCCCC(N)=O)OC(OC7C(CSCCCC(N)=O)OC(OC8C(CSCCCC(N)=O)OC(OC9C(CSCCCC(N)=O)OC(OC1C(O)C2O)C(O)C9O)C(O)C8O)C(O)C7O)C(O)C6O)C(O)C5O)C(O)C4O)C(O)C3O` (stereo not drawn) [example 10, 6-Per-deoxy-6-per(3-amidopropyl)thio-γ-cyclodextrin], the “concentration at maximum reversal (at conc.)” value (“concentration” for short) is recorded as “(33) μmol · kg^−1”, the “% max reversal” value is reported as 94% and the “ED50: dose producing 50% reversal of steady-state neuromuscular block” value (“ED50: dose producing 50% reversal” below) worked out at 0.57 µmol/kg.
On to `O=C([O-])c1ccccc1C(=O)NCCSC[C@H]1O[C@@H]2O[C@H]3[C@H](O)[C@@H](O)[C@@H](O[C@H]4[C@H](O)[C@@H](O)[C@@H](O[C@H]5[C@H](O)[C@@H](O)[C@@H](O[C@H]6[C@H](O)[C@@H](O)[C@@H](O[C@H]7[C@H](O)[C@@H](O)[C@@H](O[C@H]8[C@H](O)[C@@H](O)[C@@H](O[C@H]9[C@H](O)[C@@H](O)[C@@H](O[C@H]1[C@H](O)[C@H]2O)O[C@@H]9CSCCNC(=O)c1ccccc1C(=O)[O-])O[C@@H]8CSCCNC(=O)c1ccccc1C(=O)[O-])O[C@@H]7CSCCNC(=O)c1ccccc1C(=O)[O-])O[C@@H]6CSCCNC(=O)c1ccccc1C(=O)[O-])O[C@@H]5CSCCNC(=O)c1ccccc1C(=O)[O-])O[C@@H]4CSCCNC(=O)c1ccccc1C(=O)[O-])O[C@@H]3CSCCNC(=O)c1ccccc1C(=O)[O-].[Na+].[Na+].[Na+].[Na+].[Na+].[Na+].[Na+].[Na+]` [example 12, 6-Per-deoxy-6-per[(2(2-carboxybenzoyl)amino)ethyl]thio-γ-cyclodextrin, Sodium Salt], for which the “concentration” value was “(0.48) μmol · kg^−1”, the “% max reversal” value is reported as 95% and the “ED50: dose producing 50% reversal” value came to 0.085 µmol/kg.
Take `O=C([O-])CCCSC[C@H]1O[C@@H]2O[C@H]3[C@H](O)[C@@H](O)[C@@H](O[C@H]4[C@H](O)[C@@H](O)[C@@H](O[C@H]5[C@H](O)[C@@H](O)[C@@H](O[C@H]6[C@H](O)[C@@H](O)[C@@H](O[C@H]7[C@H](O)[C@@H](O)[C@@H](O[C@H]8[C@H](O)[C@@H](O)[C@@H](O[C@H]9[C@H](O)[C@@H](O)[C@@H](O[C@H]1[C@H](O)[C@H]2O)O[C@@H]9CSCCCC(=O)[O-])O[C@@H]8CSCCCC(=O)[O-])O[C@@H]7CSCCCC(=O)[O-])O[C@@H]6CSCCCC(=O)[O-])O[C@@H]5CSCCCC(=O)[O-])O[C@@H]4CSCCCC(=O)[O-])O[C@@H]3CSCCCC(=O)[O-].[Na+].[Na+].[Na+].[Na+].[Na+].[Na+].[Na+].[Na+]` [example 6, 6-Per-deoxy-6-per-(3carboxypropyl)thio-γ-cyclodextrin, Sodium Salt]: the “concentration” value is reported as “(0.48) μmol · kg^−1”, the “% max reversal” value was 108% and the “ED50: dose producing 50% reversal” value is 0.09 µmol/kg.
For `O=C([O-])c1ccc(SCC2OC3OC4C(CO)OC(OC5C(CO)OC(OC6C(CO)OC(OC7C(CO)OC(OC8C(CO)OC(OC9C(CO)OC(OC%10C(CO)OC(OC2C(O)C3O)C(O)C%10O)C(O)C9O)C(O)C8O)C(O)C7O)C(O)C6O)C(O)C5O)C(O)C4O)cc1.[Na+]` (stereo not drawn) [example 1, 6-mono-Deoxy-6-mono-(4-carboxyphenyl)thio-γ-cyclodextrin, Sodium Salt], the “concentration” value is reported as “(8.0) μmol · kg^−1”, the “% max reversal” value turned out to be 102% and the “ED50: dose producing 50% reversal” value amounted to 0.94 µmol/kg.
As for `O=C([O-])CCCSCC1OC2OC3C(CSCCCC(=O)[O-])OC(OC4C(CSCCCC(=O)[O-])OC(OC5C(CSCCCC(=O)[O-])OC(OC6C(CSCCCC(=O)[O-])OC(OC7C(CSCCCC(=O)[O-])OC(OC8C(CSCCCC(=O)[O-])OC(OC1C(O)C2O)C(O)C8O)C(O)C7O)C(O)C6O)C(O)C5O)C(O)C4O)C(O)C3O.[Na+].[Na+].[Na+].[Na+].[Na+].[Na+].[Na+]` (stereo not drawn) [example 16, 6-Per-deoxy-6-per(3-carboxypropyl)thio-β-cyclodextrin, Sodium Salt], the “concentration” value is “(3.2) μmol · kg^−1”, the “% max reversal” value worked out at 100% and the “ED50: dose producing 50% reversal” value came to 0.5 µmol/kg.
Turning to `CC(CSC[C@H]1O[C@@H]2O[C@H]3[C@H](O)[C@@H](O)[C@@H](O[C@H]4[C@H](O)[C@@H](O)[C@@H](O[C@H]5[C@H](O)[C@@H](O)[C@@H](O[C@H]6[C@H](O)[C@@H](O)[C@@H](O[C@H]7[C@H](O)[C@@H](O)[C@@H](O[C@H]8[C@H](O)[C@@H](O)[C@@H](O[C@H]9[C@H](O)[C@@H](O)[C@@H](O[C@H]1[C@H](O)[C@H]2O)O[C@@H]9CSCC(C)C(=O)[O-])O[C@@H]8CSCC(C)C(=O)[O-])O[C@@H]7CSCC(C)C(=O)[O-])O[C@@H]6CSCC(C)C(=O)[O-])O[C@@H]5CSCC(C)C(=O)[O-])O[C@@H]4CSCC(C)C(=O)[O-])O[C@@H]3CSCC(C)C(=O)[O-])C(=O)[O-].[Na+].[Na+].[Na+].[Na+].[Na+].[Na+].[Na+].[Na+]` (stereo partly drawn) [example 15, 6-Per-deoxy-6-per(2-carboxypropyl)thio-γ-cyclodextrin, Sodium Salt], the “concentration” value was “(0.48) μmol · kg^−1”, the “% max reversal” value is reported as 103% and the “ED50: dose producing 50% reversal” value stood at 0.10 µmol/kg.
Take `O=C([O-])CCCCCSC[C@H]1O[C@@H]2O[C@H]3[C@H](O)[C@@H](O)[C@@H](O[C@H]4[C@H](O)[C@@H](O)[C@@H](O[C@H]5[C@H](O)[C@@H](O)[C@@H](O[C@H]6[C@H](O)[C@@H](O)[C@@H](O[C@H]7[C@H](O)[C@@H](O)[C@@H](O[C@H]8[C@H](O)[C@@H](O)[C@@H](O[C@H]9[C@H](O)[C@@H](O)[C@@H](O[C@H]1[C@H](O)[C@H]2O)O[C@@H]9CSCCCCCC(=O)[O-])O[C@@H]8CSCCCCCC(=O)[O-])O[C@@H]7CSCCCCCC(=O)[O-])O[C@@H]6CSCCCCCC(=O)[O-])O[C@@H]5CSCCCCCC(=O)[O-])O[C@@H]4CSCCCCCC(=O)[O-])O[C@@H]3CSCCCCCC(=O)[O-].[Na+].[Na+].[Na+].[Na+].[Na+].[Na+].[Na+].[Na+]` [example 5, 6-Per-deoxy-6-per-(5-carboxypentyl)thio-γ-cyclodextrin, Sodium Salt]: the “concentration” value is “(2.5) μmol · kg^−1”, the “% max reversal” value was 78% and the “ED50: dose producing 50% reversal” value was 0.74 µmol/kg.
For `O=C([O-])c1ccc(SC[C@H]2O[C@@H]3O[C@H]4[C@H](O)[C@@H](O)[C@@H](O[C@H]5[C@H](O)[C@@H](O)[C@@H](O[C@H]6[C@H](O)[C@@H](O)[C@@H](O[C@H]7[C@H](O)[C@@H](O)[C@@H](O[C@H]8[C@H](O)[C@@H](O)[C@@H](O[C@H]9[C@H](O)[C@@H](O)[C@@H](O[C@H]%10[C@H](O)[C@@H](O)[C@@H](O[C@H]2[C@H](O)[C@H]3O)O[C@@H]%10CSc2ccc(C(=O)[O-])cc2)O[C@@H]9CSc2ccc(C(=O)[O-])cc2)O[C@@H]8CSc2ccc(C(=O)[O-])cc2)O[C@@H]7CSc2ccc(C(=O)[O-])cc2)O[C@@H]6CSc2ccc(C(=O)[O-])cc2)O[C@@H]5CSc2ccc(C(=O)[O-])cc2)O[C@@H]4CSc2ccc(C(=O)[O-])cc2)cc1.[Na+].[Na+].[Na+].[Na+].[Na+].[Na+].[Na+].[Na+]` [example 8, 6-Per-deoxy-6-per-(4-carboxyphenyl)thio-γ-cyclodextrin, Sodium Salt], the “concentration” value is “(0.48) μmol · kg^−1”, the “% max reversal” value is reported as 95% and the “ED50: dose producing 50% reversal” value came to 0.10 µmol/kg.
Take `O=C([O-])Cc1ccc(SC[C@H]2O[C@@H]3O[C@H]4[C@H](O)[C@@H](O)[C@@H](O[C@H]5[C@H](O)[C@@H](O)[C@@H](O[C@H]6[C@H](O)[C@@H](O)[C@@H](O[C@H]7[C@H](O)[C@@H](O)[C@@H](O[C@H]8[C@H](O)[C@@H](O)[C@@H](O[C@H]9[C@H](O)[C@@H](O)[C@@H](O[C@H]%10[C@H](O)[C@@H](O)[C@@H](O[C@H]2[C@H](O)[C@H]3O)O[C@@H]%10CSc2ccc(CC(=O)[O-])cc2)O[C@@H]9CSc2ccc(CC(=O)[O-])cc2)O[C@@H]8CSc2ccc(CC(=O)[O-])cc2)O[C@@H]7CSc2ccc(CC(=O)[O-])cc2)O[C@@H]6CSc2ccc(CC(=O)[O-])cc2)O[C@@H]5CSc2ccc(CC(=O)[O-])cc2)O[C@@H]4CSc2ccc(CC(=O)[O-])cc2)cc1.[Na+].[Na+].[Na+].[Na+].[Na+].[Na+].[Na+].[Na+]` [example 9, 6-Per-deoxy-6-per-(4-carboxymethylphenyl)thio-γ-cyclodextrin, Sodium Salt]: the “concentration” value is given as “(0.50) μmol · kg^−1”, the “% max reversal” value came out at 100% and the “ED50: dose producing 50% reversal” value worked out at 0.13 µmol/kg.

These data come from patent publication USRE44733E1, “6-mercapto-cyclodextrin derivatives:reversal agents for drug-induced neuromuscular block” (Merck Sharp & Dohme B.V., priority 1999, dated 2014).
